The subject of data set [1] is chondrocytes in the cartilage chamber. Briefly: RT-PCR marker expression, chondrocyte response in cartilage (top) chamber of the bioreactor. The class given is cell-based. The settings on record: weeks 3 and 4 (1 nM estradiol + 10 nM progesterone; 0.1 nM estradiol + 50 nM progesterone). As for the experimental part: FIGS. 17-20 are graphs that show differential expression of markers (as determined by RT-PCR) for a control medium that contained no estrogen or progesterone (first bar), and then different concentrations of hormones supplied to one or the other of the bioreactor chambers during week 1 (w1: 0.1 nM estradiol), week 2 (w2: 1 nM estradiol), week 3 (w3: 1 nM estradiol and 10 nM progesterone), and week 4 (w4: 0.1 nM estradiol and 50 nM progesterone). […] FIGS. 17-18 show differential expression of markers (as determined by RT-PCR) for a control medium that contained no estrogen or progesterone (first bar), and then different concentrations of hormones supplied to the chambers during week 1 (w1: 0.1 nM estradiol), week 2 (w2: 1 nM estradiol), week 3 (w3: 1 nM estradiol and 10 nM progesterone), and week 4 (w4: 0.1 nM estradiol and 50 nM progesterone).

The conditions of data set [2]: not told.
Text: The porosity and permeability of the latter have been estimated via Boyle's pycnometer and scanning electron microscopy (SEM) analysis.

Results on 2 compounds are retold here after patent publication US11154858B2, “Microfluidic tissue development systems” (University of Pittsburgh—Of the Commonwealth System of …, priority 2015, dated 2021).

As to `CC(=O)[C@H]1CC[C@H]2[C@@H]3CCC4=CC(=O)CC[C@]4(C)[C@H]3CC[C@]12C` [progesterone], the “expression of cartilage anabolic markers, progesterone progressively added” value in data set [1] is listed as “downregulation is still present”.

poly-L-lactate [PLLA scaffold] yielded a Permeability in data set [2] of 3.234e−09 m^2.
